Earlier results on six molecules are cited in patent US8841334B2, “Compounds as cannabinoid receptor ligands and uses thereof” (priority 2006, dated 2014).

In one data set the test system is mice. Particulars: model for post-menopausal osteoporosis.
The subject of data set [1] is apolipoprotein E knockout mice.
Data set [2] relates to microglial activation and neurotoxicity. Particulars: in vitro.
The next data set relates to rodent models. Particulars: rodent models of neuropathic, incisional, and both chronic and acute inflammatory pain.
Another data set deals with animal models. Particulars: animal models of acute thermal pain, persistent pain, inflammatory pain and neuropathic pain.
A further data set concerns rat. Conditions: rat formalin model of persistent pain.

In the case of SR144528, the osteoclast activity result with osteoclast activity is recorded as “inhibit osteoclast activity”. Also, the ovariectomy-induced bone loss entry in the data set on mice was “reverse ovariectomy-induced bone loss”. Also, the “inhibition of the effects of THC on atherosclerotic lesions” value in data set [1] (mouse, in vivo) is “inhibited”. In data set [2], the “block of the effects of JWH-133 on microglial activation and neurotoxicity” value is “blocked”. Take `CCCC(C)(C)c1ccc2c(c1)OC(C)(C)[C@@H]1CC=C(C)C[C@@H]21` [JWH-133]: the “[…]-amyloid-induced microglial activation and neurotoxicity” value in data set [2] is “abrogated”. On to `COc1ccc2c(c1)c(CCN1CCOCC1)c(C)n2C(=O)c1cccc(Cl)c1Cl` [GW405833], for which the “efficacy in pain models” value in the data set on rodent models is “efficacious”. For the molecule `CN1CCCCC1Cn1cc(C(=O)c2cc([N+](=O)[O-])ccc2I)c2ccccc21` (stereo not drawn) [AM-1241], in the data set on animal models, the analgesic efficacy result was “robust analgesic efficacy”. Regarding `CCCCCCC(C)(C)c1cc(OC)c([C@@H]2C=C(CO)[C@@H]3C[C@H]2C3(C)C)c(OC)c1` [HU-308], the antinociceptive response result in the data set on rat is “elicits an antinociceptive response”.

In the case of (−)-Δ^9-Tetrahydrocannabinol [THC], the “progression of atherosclerotic lesions” value in data set [1] (low doses) is on record as “slowed the progression of atherosclerotic lesions”.
